# Assay results as given in patent US20240132431A1, “METHOD FOR ALKYLATING ACIDIC FUNCTIONAL GROUP” (Chugai Seiyaku Kabushiki Kaisha, priority 2021, published 2024).
# Molecular target: T1, Bcl-2 protein (Recombinant Human Bcl-2 Protein) (Homo sapiens, UniProt P10415)
# T1 construct: purchased Novus NBP2-34889
# Experiment: Binding evaluation of mixture library compounds to Bcl-2 using AS-MS (affinity selection mass spectrometry)
# Settings: for ASMS ratio (%) n = 1 / ASMS ratio (%) n = 2: ASMS Ratio(%)=(A−C)/B×100; for ASMS ratio (%) n = 1: replicate n = 1; for ASMS ratio (%) n = 2: replicate n = 2
# Summary of the method: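 Affinity selection MS: Bcl-2 20 μM + 1200-cpd mixture, […]/cpd, Tris pH 7.4 buffer w/ Tween-20, DTT; 1 h 23° C dark; P-2 spin SEC; MeCN/MeOH extraction; RP LC/MS. ASMS Ratio(%) = (A−C)/B×100.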
# [1] = AS-MS, mixture of 1200 compounds, Bcl-2
# [2] = AS-MS on the mixture of 1200 library compounds
# T1 sequence (P10415 whole entry): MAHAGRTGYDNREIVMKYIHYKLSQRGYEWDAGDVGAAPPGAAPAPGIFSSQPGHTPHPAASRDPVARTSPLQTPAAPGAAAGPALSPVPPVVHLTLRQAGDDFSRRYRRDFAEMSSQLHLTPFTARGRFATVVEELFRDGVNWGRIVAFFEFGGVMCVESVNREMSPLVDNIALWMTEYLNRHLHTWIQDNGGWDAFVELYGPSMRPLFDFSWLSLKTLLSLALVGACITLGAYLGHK
compound,measurement,setting,value
"CCOc1cccc(C#Cc2cc(C(=O)N3CCN(c4ccc(C(=O)NCC56CC7CC(CC(C7)C5)C6)nn4)CC3)cc(C(F)(F)F)c2)c1 [B1A019-01, N-(1-Adamantylmethyl)-6-[4-[3-[2-(3-ethoxyphenyl)ethynyl]-5-(trifluoromethyl)benzoyl]piperazin-1-yl]pyridazine-3-carboxamide]",ASMS ratio (%) n = 1,[1],−3.9%
same,ASMS ratio (%) n = 2,[1],−7.5%
"CCOc1cccc(-c2csc(C(=O)N3CCN(c4ccc(C(=O)NS(C)(=O)=O)nn4)CC3)c2)c1 [B2I001-01, 6-[4-[4-(3-Ethoxyphenyl)thiophene-2-carbonyl]piperazin-1-yl]-N-methylsulfonylpyridazine-3-carboxamide]",ASMS ratio (%) n = 1,"AS-MS, mixture library, Bcl-2",0.0%
"CCOc1cncc(-c2cc(C(=O)N3CCN(c4ccc(C(=O)NCC(F)(F)F)nn4)CC3)cc(C(F)(F)F)c2)c1 [B1K018-01, 6-[4-[3-(5-Ethoxypyridin-3-yl)-5-(trifluoromethyl)benzoyl]piperazin-1-yl]-N-(2,2,2-trifluoroethyl)pyridazine-3-carboxamide]",ASMS ratio (%) n = 1,[1],−0.6%
same,ASMS ratio (%) n = 2,[1],0.5%
CCOc1cccc(-c2cc(CN3CCN(c4ccc(C(=O)Nc5ccc(OC)cc5)cc4)CC3)cc(OCC)c2)c1 [B1O055-01],ASMS ratio (%) n = 1,[2],3.0%
same,ASMS ratio (%) n = 2,[2],−4.2%
"CCOc1cccc(-c2ccc(C(=O)N3CCN(c4ccc(C(=O)NS(C)(=O)=O)cc4)CC3)cc2F)c1 [B2I027-01, 4-[4-[4-(3-Ethoxyphenyl)-3-fluorobenzoyl]piperazin-1-yl]-N-methylsulfonylbenzamide]",ASMS ratio (%) n = 1,"AS-MS, mixture library, Bcl-2",0.0%
same,ASMS ratio (%) n = 2,"AS-MS, mixture library, Bcl-2",0.0%
"CCOc1cncc(-c2cc(CN3CCN(c4ccc(C(=O)NS(=O)(=O)c5ccc(NCCSc6ccccc6)c([N+](=O)[O-])c5)cc4)CC3)cc(C(F)(F)F)c2)c1 [B2Q062-01, 4-[4-[[3-(5-Ethoxypyridin-3-yl)-5-(trifluoromethyl)phenyl]methyl]piperazin-1-yl]-N-[3-nitro-4-(2-phenylsulfanylethylamino)phenyl]sulfonylbenzamide]",ASMS ratio (%) n = 1,"AS-MS, mixture library, Bcl-2",9.4%
same,ASMS ratio (%) n = 2,"AS-MS, mixture library, Bcl-2",−3.3%
"CCOc1cncc(-c2cc(CN3CCN(c4ccc(C(=O)N(C)CC56CC7CC(CC(C7)C5)C6)cc4)CC3)cc(OC(F)(F)F)c2)c1 [B3A064-01, N-(1-Adamantylmethyl)-4-[4-[[3-(5-ethoxypyridin-3-yl)-5-(trifluoromethoxy)phenyl]methyl]piperazin-1-yl]-N-methylbenzamide]",ASMS ratio (%) n = 1,[2],−7.5%
same,ASMS ratio (%) n = 2,[2],−5.5%
"CCOc1cccc(-c2cc(C(=O)N3CCN(c4ccc(C(=O)N(CC)CC)nn4)CC3)cc(C(C)(C)C)c2)c1 [B4J015-01, 6-[4-[3-tert-Butyl-5-(3-ethoxyphenyl)benzoyl]piperazin-1-yl]-N,N-diethylpyridazine-3-carboxamide]",ASMS ratio (%) n = 1,[2],0.0%
same,ASMS ratio (%) n = 2,[2],0.0%
"CCOc1cccc(C#Cc2ccccc2C(=O)N2CCN(c3ccc(C(=O)NS(C)(=O)=O)cc3)CC2)c1 [B2I029-01, 4-[4-[2-[2-(3-Ethoxyphenyl)ethynyl]benzoyl]piperazin-1-yl]-N-methylsulfonylbenzamide]",ASMS ratio (%) n = 1,"AS-MS, mixture library, Bcl-2",0.0%
same,ASMS ratio (%) n = 2,"AS-MS, mixture library, Bcl-2",0.0%
"CCOc1cccc(-c2cc(CN3CCN(c4ccc(C(=O)NS(=O)(=O)CC56CC7CC(CC(C7)C5)C6)nn4)CC3)cc(C(F)(F)F)c2)c1 [B2A087-01, N-(1-Adamantylmethylsulfonyl)-6-[4-[[3-(3-ethoxyphenyl)-5-(trifluoromethyl)phenyl]methyl]piperazin-1-yl]pyridazine-3-carboxamide]",ASMS ratio (%) n = 1,"AS-MS, mixture library, Bcl-2",7.2%
same,ASMS ratio (%) n = 2,"AS-MS, mixture library, Bcl-2",12.7%
CCOc1cncc(C#Cc2ccccc2CN2CCN(c3ccc(C(=O)Nc4ccc(OC)cc4)cc3)CC2)c1 [B1O070-01],ASMS ratio (%) n = 1,[2],8.8%
same,ASMS ratio (%) n = 2,[2],2.3%
"CCOc1cncc(-c2ccccc2CCC(=O)N2CCN(c3ccc(C(=O)NS(=O)(=O)C(C)(C)C)cc3)CC2)c1 [B2L034-01, N-tert-Butylsulfonyl-4-[4-[3-[2-(5-ethoxypyridin-3-yl)phenyl]propanoyl]piperazin-1-yl]benzamide]",ASMS ratio (%),n = 1,1.6%
same,ASMS ratio (%),n = 2,3.5%
"CCOc1cccc(-c2ccc(C(=O)N3CCN(c4ccc(C(=O)NS(C)(=O)=O)cc4)CC3)c3ccccc23)c1 [B2I035-01, 4-[4-[4-(3-Ethoxyphenyl)naphthalene-1-carbonyl]piperazin-1-yl]-N-methylsulfonylbenzamide]",ASMS ratio (%) n = 1,"AS-MS, mixture library, Bcl-2",0.0%
same,ASMS ratio (%) n = 2,"AS-MS, mixture library, Bcl-2",1.6%
"CCOc1cccc(-c2ccc(CN3CCN(c4ccc(C(=O)NS(=O)(=O)c5ccc(NCCSc6ccccc6)c(C(F)(F)F)c5)nn4)CC3)cc2C)c1 [B2R073-01, 6-[4-[[4-(3-Ethoxyphenyl)-3-methylphenyl]methyl]piperazin-1-yl]-N-[4-(2-phenylsulfanylethylamino)-3-(trifluoromethyl)phenyl]sulfonylpyridazine-3-carboxamide]",ASMS ratio (%),n = 1,24.0%
same,ASMS ratio (%),n = 2,0.0%
"CCOc1cccc(-c2cc(C(=O)N3CCN(c4ccc(C(=O)Nc5ccc(OC)cc5)nn4)CC3)cc(C(F)(F)F)c2)c1 [B1O017-01, 6-[4-[3-(3-Ethoxyphenyl)-5-(trifluoromethyl)benzoyl]piperazin-1-yl]-N-(4-methoxyphenyl)pyridazine-3-carboxamide]",ASMS ratio (%) n = 1,[2],2.5%
same,ASMS ratio (%) n = 2,[2],0.0%
CCOc1cccc(-c2cc(OC)c(CN3CCN(c4ccc(C(=O)NS(=O)(=O)CCC(F)(F)F)nn4)CC3)c(OC)c2)c1 [B2N085-01],ASMS ratio (%),n = 1,0.0%
same,ASMS ratio (%),n = 2,0.0%
"CCOc1cncc(-c2cc(CN3CCN(c4ccc(C(=O)NCC(F)(F)F)nn4)CC3)cc(OCC)c2)c1 [B1K082-01, 6-[4-[[3-Ethoxy-5-(5-ethoxypyridin-3-yl)phenyl]methyl]piperazin-1-yl]-N-(2,2,2-trifluoroethyl)pyridazine-3-carboxamide]",ASMS ratio (%) n = 1,[1],0.0%
same,ASMS ratio (%) n = 2,[1],0.0%
"CCOc1cncc(-c2cc(CN3CCN(c4ccc(C(=O)NS(=O)(=O)C(C)(C)C)cc4)CC3)cc(C(F)(F)F)c2)c1 [B2L062-01, N-tert-Butylsulfonyl-4-[4-[[3-(5-ethoxypyridin-3-yl)-5-(trifluoromethyl)phenyl]methyl]piperazin-1-yl]benzamide]",ASMS ratio (%),n = 1,0.0%
same,ASMS ratio (%),n = 2,0.0%
"CCOc1cncc(-c2csc(CN3CCN(c4ccc(C(=O)NS(C)(=O)=O)nn4)CC3)c2)c1 [B2I094-01, 6-[4-[[4-(5-Ethoxypyridin-3-yl)thiophen-2-yl]methyl]piperazin-1-yl]-N-methylsulfonylpyridazine-3-carboxamide]",ASMS ratio (%),n = 1,0.0%
same,ASMS ratio (%),n = 2,0.0%
"CCOc1cncc(-c2cc(C(=O)N3CCN(c4ccc(C(=O)N(CC)CC)cc4)CC3)cc(C(C)(C)C)c2)c1 [B4J038-01, 4-[4-[3-tert-Butyl-5-(5-ethoxypyridin-3-yl)benzoyl]piperazin-1-yl]-N,N-diethylbenzamide]",ASMS ratio (%) n = 1,[2],0.8%
same,ASMS ratio (%) n = 2,[2],0.0%
6-[4-[[4-(3-Ethoxyphenyl)thiophen-2-yl]methyl]piperazin-1-yl]-N-propylpyridazine-3-carboxamide [B1M049-01],ASMS ratio (%) n = 1,[1],−0.9%
same,ASMS ratio (%) n = 2,[1],−0.4%
CCOc1cccc(-c2ccc(CN3CCN(c4ccc(C(=O)NS(=O)(=O)CCC(F)(F)F)nn4)CC3)c(OC)c2)c1 [B2N079-01],ASMS ratio (%),n = 1,0.0%
same,ASMS ratio (%),n = 2,0.0%
"CCOc1cccc(-c2cc(CN3CCN(c4ccc(C(=O)NCC56CC7CC(CC(C7)C5)C6)cc4)CC3)cc(C(F)(F)F)c2)c1 [B1A061-01, N-(1-Adamantylmethyl)-4-[4-[[3-(3-ethoxyphenyl)-5-(trifluoromethyl)phenyl]methyl]piperazin-1-yl]benzamide]",ASMS ratio (%) n = 1,[1],5.3%
same,ASMS ratio (%) n = 2,[1],1.1%
"CCOc1cccc(-c2ccc(C(=O)N3CCN(c4ccc(C(=O)NS(=O)(=O)CCC(F)(F)F)cc4)CC3)cc2C)c1 [B2N025-01, 4-[4-[4-(3-Ethoxyphenyl)-3-methylbenzoyl]piperazin-1-yl]-N-(3,3,3-trifluoropropylsulfonyl)benzamide]",ASMS ratio (%),n = 1,0.0%
same,ASMS ratio (%),n = 2,0.0%
"CCOc1cccc(-c2ccc(C(=O)N3CCN(c4ccc(C(=O)N(CC)CC)cc4)CC3)cc2C)c1 [B4J025-01, 4-[4-[4-(3-Ethoxyphenyl)-3-methylbenzoyl]piperazin-1-yl]-N,N-diethylbenzamide]",ASMS ratio (%) n = 1,[2],3.6%
same,ASMS ratio (%) n = 2,[2],−0.3%
6-[4-[2-[2-(3-Ethoxyphenyl)ethynyl]benzoyl]piperazin-1-yl]-N-propylpyridazine-3-carboxamide [B1M095-01],ASMS ratio (%) n = 1,[2],0.0%
same,ASMS ratio (%) n = 2,[2],0.0%
CCOc1cccc(-c2ccc(CN3CCN(c4ccc(C(=O)NS(=O)(=O)CC56CC7CC(CC(C7)C5)C6)cc4)CC3)cc2F)c1 [B2A051-01],ASMS ratio (%) n = 1,"AS-MS, mixture library, Bcl-2",−0.3%
same,ASMS ratio (%) n = 2,"AS-MS, mixture library, Bcl-2",3.6%
